Data set [1] concerns LNCaP. In words: MTT cytotoxicity assay, LNCaP prostate cancer cells. The note with it: Homo sapiens, read-out: Growth Inhibition %; for inhibition at 25 µM: 2.5 × 10^−5 M; for inhibition at 2.5 µM: 2.5 × 10^−6 M; for inhibition at 0.25 µM: 2.5 × 10^−7 M. The format is cell-based, human. The protocol:
The human prostate cancer LNCaP, PC-3, and DU-145 cell lines, as well as human fibroblast cell line, were obtained from the American Type Culture Collection (“ATCC”) and maintained in RPMI-1640, F-12k, and MEM mediums, respectively, supplemented with 10% FBS. Cell lines were maintained at 37° C. under a humidified atmosphere and 5% CO2 for testing of the cytotoxicity of betulinol derivatives. The cytotoxicity assay was performed using MTT assay according to the instructions of ATCC protocol. Cells 1×10^5 in 0.1 ml/well were plated in 96-well culture plates (Costar) and incubated with a different dilution of betulinol derivatives for 24, 48, and 72 hours. Ten μl of 3-[4,5-dimethylthiazol-2-yl]-2,5 diphenyl tetrazolium bromide was added into each well at the end of each incubation period. The reaction product, formazan, was dissolved in the detergent, and the absorbance was read at 540 nm (Ref).
However, these compounds were not tested on prostate cancer LNCaP cell line by NCI. […] The anti-tumor activity of the compounds was determined at three doses and the total growth inhibition kill effect as pertinent of the control at 24, 48, and 72 hours as presented in Table 11.

The subject of data set [2] is 184B5/HER. In words: In vitro cytotoxicity, Breast (1), 184B5/HER. The format is cell-based. Conditions: 1 × 10^−4 M.
The nature of data set [3]: Solubility in DMSO diluted with culture medium (GC standard curve). Conditions: for State of solution: 0.5 mg/mL BA. As to the method:
The residue was dissolved in chloroform analyzed on GC.
Ethyl ether was then evaporated. […] Concentration of drug in the above solutions was analyzed by GC and determined from the standard solubility curve.

A short description of data set [4]: Solubilization in PBS containing human γ-globulin, human albumin and ethanol. Conditions: 1 × 10^−3 mol/L. The source says:
Human γ-Globulin and human albumin are two major biocompatible components in human serum.

Data set [5] concerns LNCaP xenografts. The arrangement: species or system athymic mice. The note with it: mouse, in vivo. As to the method: All the animal studies were performed according to the guidelines and approval of the Institutional Animal Care and Use Committee and Research Animal Resource Center of Weill Medical College of Cornell University, New York. Twelve mice of 13 weeks of age were purchased from The National Cancer Institute (NCI) and were housed in a pathogen-free environment under controlled conditions of light and humidity and with free access to food and water. LNCaP cells were grown in RPMI-1640 with 10% FBS until 80-90% confluent. Cells were scraped into PBS and collected by centrifugation. The LNCAP cell pellets were suspended in Matrigel (Ref) at 2.5×10^7 cells/ml. Mice were injected subcutaneously (“s.c.”) with 200 μl (5×10^6 cells) of the cell suspension at one site on the flank. Visible tumor grew after 7-8 days following implantation and mice were divided into three groups of four mice each.
Mice received s.c. injection daily for ten days. […] Tumors were measured daily with calipers, and tumor volumes were calculated by the formula: π/6(l×w×h). Animals were also weighed daily and monitored for general health status and vital signs of possible toxicity due to treatment. At the end of the treatment period, the animals were sacrificed and tumors were excised, weighed and prepared for immunohistochemical and histological studies. […]

The conditions of data set [6]: 1.34 mg in 31 μL ethanol + 700 μL human serum.

Where two headings read alike, the source gives them in different places.

With `C=C(C)C1CCC2(C(=O)O)CC[C@]3(C)[C@H](CC[C@@H]4[C@@]5(C)CCC(=O)C(C)(C)[C@@H]5CC[C@]43C)C12` (stereo partly drawn) [Compound 4, Betulonic Acid], the inhibition (in general, the drop in the measured response relative to a control, in per cent) at 25 µM in data set [1] (24 hours) stood at 11.4%; in data set [1] (48 hours), 32.6%. In addition, the inhibition at 2.5 µM came out at 14.7% in data set [1] (24 hours) and 43% in data set [1] (48 hours). Moreover, the figures for the inhibition at 0.25 µM in data set [1] (24 hours) and in data set [1] (48 hours) were 3.01% and 28.3%, respectively. The “Percent Killed” value in data set [2] is recorded as “Toxic”. For the same compound, the State of solution result is on record as “Suspension” in data set [3] (3% DMSO in culture medium); “Suspension” in data set [3] (9% DMSO in culture medium); “Cloudy” in data set [3] (14% DMSO in culture medium); “clear solution” in data set [3] (20% DMSO in culture medium); “Clear” in data set [3] (20% DMSO in culture medium, listed as BA). Also, the “amount of betulonic acid dissolved” value in data set [3] (out of 3 mg, 1% DMSO in culture medium containing 10% FBS, supernatant after centrifugation) is recorded as 0.4 mg. For the same compound, the Observation entry in data set [4] (ethanol 220 μL, γ-globulin 1.48 mL, albumin 0.49 mL) is recorded as “Cloudy”; in data set [4] (ethanol 280 μL, γ-globulin 0 mL, albumin 2.50 mL), “Complete”; in data set [4] (ethanol 280 μL, γ-globulin (27 mg/mL in PBS) 2.50 mL, albumin (42 mg/mL in PBS) 0 mL), “Suspension”; in data set [4] (ethanol 308 μL, γ-globulin 0.69 mL, albumin 2.07 mL), “Almost Clear”; in data set [4] (ethanol 330 μL, γ-globulin 1.48 mL, albumin 1.48 mL) it was “Little Cloudy”; in data set [4] (ethanol 352 μL, γ-globulin 0.32 mL, albumin 2.85 mL), “Clear”. Also, the Observation entry in data set [6] is on record as “Clear Solution”. In addition, the “general health and vital signs during treatment” value in data set [5] was “no adverse effects on vital signs”.
